Experimental data taken from US20200069607A1, “MOUTHWASH FOR TREATING ORAL CANCERS” (THE BOARD OF REGENTS OF THE UNIVERSITY OF TEXAS SYSTEM, priority 2016, published 2020).

Key:
Ca127 cells = assay: Calcium imaging of Ca127 cells; assay type: cell-based; details: for effect of inhibitor pre-treatment on calcium influx in response to thymol: Ca127 cells, pre-treatment followed by thymol 400 μM
Description: (§1) FIGS. 6A-D: Calcium imaging of CHO cells overexpressing TRPA1 (FIG. 6A) or TRPV1 (FIG. 6B). Calcium imaging of cancer cell lines, Ca127 (FIG. 6C) and HeLa (FIG. 6D).
(§2) […]. […] […].

Ca127 (OSCC) cells = assay: Cell viability / proliferation (MTS) assay, Ca127 cells; assay type: cell-based; details: treated 24 hours, p<0.001, read-out: IC50, anti-proliferative effect
TRPA1 = target: T1, TRPA1 (Homo sapiens, UniProt O75762); assay: Calcium imaging of CHO cells overexpressing TRPA1; assay type: cell-based
T1 construct: expressed in transfected cells; host or cells: CHO cells
Description: as §1

TRPV1 = target: T2, TRPV1 (Homo sapiens, UniProt Q8NER1); assay: Calcium imaging of CHO cells overexpressing TRPV1; assay type: cell-based
T2 construct: expressed in transfected cells; host or cells: CHO cells
Description: as §1

HeLa cells [1] = assay: Calcium imaging of HeLa cells; assay type: cell-based; details: negative for TRPA1, thymol treatment
Description: as §1, §2

cleaved PARP (c-PARP) [2] = assay: Western blot of cleaved PARP, Ca127 cells; assay type: cell-based; details: increasing concentrations of thymol
Description: as §2

cleaved PARP (c-PARP) [3] = assay: Western blot of cleaved PARP, HeLa cells; assay type: cell-based; details: increasing concentrations of thymol
Description: as §2

[4] = tested on: solid tumors (breast, lung, prostate, colon, cervical); assay: Anti-tumor effects against solid tumors (inventor's data); details: all types of solid tumors (breast, lung, prostate, colon, cervical)
Description: However head and neck cancer is 90% of squamous cell origin.

HeLa cells [5] = assay: Clonogenic assay, HeLa cells
Description: (§3) FIGS. 3A-D: Clonogenic Assay of Ca127 (FIGS. 3A and 3C) and HeLa cells (FIGS. 3B and 3D).

Ca127 = assay: Clonogenic assay, Ca127 cells
Description: as §3

HeLa-derived tumors = assay: HeLa mouse xenograft, intra-tumor injection
Ca127-derived tumors = assay: Ca127 mouse xenograft, intra-tumor injection
[6] = tested on: HeLa (Cervical cancer) cells; assay: Cell viability / proliferation assay, HeLa cells; details: Homo sapiens, 48 h, read-out: IC50, anti-proliferative effect

T1 sequence (O75762 whole entry, species assumed): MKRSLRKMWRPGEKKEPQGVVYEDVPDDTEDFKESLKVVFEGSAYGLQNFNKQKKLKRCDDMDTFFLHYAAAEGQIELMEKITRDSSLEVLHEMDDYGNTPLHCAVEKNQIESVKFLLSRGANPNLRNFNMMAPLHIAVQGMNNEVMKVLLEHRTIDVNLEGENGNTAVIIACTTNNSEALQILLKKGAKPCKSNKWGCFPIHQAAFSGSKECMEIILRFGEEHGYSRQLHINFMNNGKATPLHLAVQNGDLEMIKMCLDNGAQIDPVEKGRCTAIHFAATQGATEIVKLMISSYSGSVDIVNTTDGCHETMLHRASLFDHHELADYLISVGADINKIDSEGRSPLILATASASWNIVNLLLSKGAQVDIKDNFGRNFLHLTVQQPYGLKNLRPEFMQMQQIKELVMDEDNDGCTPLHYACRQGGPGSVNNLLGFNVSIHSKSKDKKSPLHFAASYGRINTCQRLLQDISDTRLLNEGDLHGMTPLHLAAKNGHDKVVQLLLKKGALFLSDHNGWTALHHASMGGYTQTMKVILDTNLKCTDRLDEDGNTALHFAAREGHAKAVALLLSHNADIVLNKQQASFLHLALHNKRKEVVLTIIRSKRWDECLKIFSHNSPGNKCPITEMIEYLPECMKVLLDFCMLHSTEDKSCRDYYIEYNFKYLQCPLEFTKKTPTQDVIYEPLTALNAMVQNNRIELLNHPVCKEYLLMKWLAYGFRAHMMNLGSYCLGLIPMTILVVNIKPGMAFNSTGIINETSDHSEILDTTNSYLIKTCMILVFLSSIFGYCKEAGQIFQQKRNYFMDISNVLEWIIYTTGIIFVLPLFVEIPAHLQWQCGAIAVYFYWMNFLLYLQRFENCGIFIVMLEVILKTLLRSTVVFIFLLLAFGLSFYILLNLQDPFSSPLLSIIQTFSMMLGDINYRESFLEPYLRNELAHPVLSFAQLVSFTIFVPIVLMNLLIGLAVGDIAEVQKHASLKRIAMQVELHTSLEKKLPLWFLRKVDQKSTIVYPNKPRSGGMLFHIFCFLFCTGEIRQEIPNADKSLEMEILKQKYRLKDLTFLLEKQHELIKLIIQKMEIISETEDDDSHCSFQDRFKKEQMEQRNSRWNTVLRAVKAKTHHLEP
T2 sequence (Q8NER1 whole entry, species assumed): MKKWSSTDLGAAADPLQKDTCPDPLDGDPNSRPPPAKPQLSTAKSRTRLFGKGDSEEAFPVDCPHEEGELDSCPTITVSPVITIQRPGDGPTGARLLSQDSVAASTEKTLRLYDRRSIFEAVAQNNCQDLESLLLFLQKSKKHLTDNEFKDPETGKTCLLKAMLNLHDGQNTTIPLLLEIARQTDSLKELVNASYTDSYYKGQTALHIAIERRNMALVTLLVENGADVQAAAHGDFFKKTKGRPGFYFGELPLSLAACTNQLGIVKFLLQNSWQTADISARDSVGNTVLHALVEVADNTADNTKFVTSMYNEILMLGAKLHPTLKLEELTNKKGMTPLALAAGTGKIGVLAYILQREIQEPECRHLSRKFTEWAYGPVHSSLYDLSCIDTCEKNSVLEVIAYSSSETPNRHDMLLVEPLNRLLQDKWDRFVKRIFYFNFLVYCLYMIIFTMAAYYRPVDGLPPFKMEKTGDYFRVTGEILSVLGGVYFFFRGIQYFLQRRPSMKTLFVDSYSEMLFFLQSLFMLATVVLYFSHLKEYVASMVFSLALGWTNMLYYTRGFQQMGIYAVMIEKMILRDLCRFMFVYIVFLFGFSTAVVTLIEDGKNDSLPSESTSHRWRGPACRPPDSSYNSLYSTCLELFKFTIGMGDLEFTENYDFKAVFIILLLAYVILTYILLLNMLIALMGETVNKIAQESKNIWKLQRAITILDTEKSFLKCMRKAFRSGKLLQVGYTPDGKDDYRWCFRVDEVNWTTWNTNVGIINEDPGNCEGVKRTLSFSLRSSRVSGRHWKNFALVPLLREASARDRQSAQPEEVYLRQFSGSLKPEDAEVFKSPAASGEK

CC(C)c1ccc(NC(=O)Cn2cnc3c2c(=O)n(C)c(=O)n3C)cc1 [HC030031]
effect of inhibitor pre-treatment on calcium influx in response to thymol (Ca127 cells): nearly abolished all calcium influx

O=C(O)c1ccc(S(=O)(=O)N(Cc2ccc(OC(F)(F)F)cc2)c2ncc(C(F)(F)F)cc2Cl)cc1 [RQ00203078]
effect of inhibitor pre-treatment on calcium influx in response to thymol (Ca127 cells): reduced calcium influx

Cc1ccc(C(C)C)c(O)c1 [thymol, 2-isopropyl-5-methylphenol]
IC50 (Ca127 (OSCC) cells): 400 µM
TRPA1 channel activation (calcium imaging) (TRPA1): activates TRPA1 channels
TRPV1 channel activation (calcium imaging) (TRPV1): not TRPV1 channels
calcium influx (Ca127 cells; Ca127 cells expressing TRPA1, thymol 400 μM): small calcium influx
calcium response (HeLa cells [1]): did not respond
activation of cleaved PARP (apoptosis) (cleaved PARP (c-PARP) [2]): dose-dependent activation
activation of cleaved PARP (apoptosis) (cleaved PARP (c-PARP) [3]): dose-dependent activation
anti-tumor effects [4]: anti-tumor effects
colony formation (HeLa cells [5]; HeLa (FIGS. 3A-D), one minute exposure, 10 days): abolished colony formation
colony formation (HeLa cells [5]; HeLa, single two minute exposure, 4.3 mM, ten days): abolished colony formation
colony formation (Ca127; Ca127 (FIGS. 3A-D), one minute exposure, 10 days): abolished colony formation
colony formation (Ca127; Ca127, single two minute exposure, 4.3 mM, ten days): abolished colony formation
median tumor volume (HeLa-derived tumors; Day 26 as printed, thymol 4.3 mM every other day for 22 days, control 900 mm^3): 500 mm^3
tumor volume compared to control (HeLa-derived tumors; by day 18, remained through day 22, 4.3 mM intra-tumor every other day, p<0.001): significant reduction
average tumor volume (HeLa-derived tumors; thymol 4.3 mM intra-tumor every other day for 22 days, control 900 mm^3): 500 mm^3
median tumor volume (Ca127-derived tumors; Day 26, thymol 4.3 mM every other day, control 400 mm^3): 100 mm^3
tumor volume compared to control (Ca127-derived tumors; by day 16, 4.3 mM intra-tumor every other day, p<0.001): significant reduction
average tumor volume (Ca127-derived tumors; thymol 4.3 mM intra-tumor every other day for 26 days, control 400 mm^3): 90 mm^3
IC50 [6]: 400 µM
